Source: US9221754B2, “Crystalline forms of zofenopril calcium” (Generics [UK] Limited, priority 2008, dated 2015)
Structures can show the parent of a compound that is named as a salt.

How the values were obtained:
Type in all cases: physicochemical
[1] = Hygroscopicity of the crystalline forms
[2] = Mechanical stress during particle size reduction (milling using a multimill); details: calcium salt
[3] = Pellet compression with an Infrared spectrophotometer press machine; details: pressure exerted ~10 Tons, calcium salt
[4] = Slurry in water (10% w/v) exposed to 50-55° C. for six hours; details: calcium salt
[5] = Polymorphic purity under dosage form preparation conditions (micronization or wet granulation)

SMILES	hygroscopicity [1]	polymorphic stability to mechanical stress (milling), by XRPD, DSC and TGA [2]	polymorphic stability to compression, by XRPD, DSC and TGA [3]	polymorphic stability of the water slurry, by XRPD, DSC and TGA [4]	change in polymorphic purity during dosage form preparation [5]
C[C@H](CSC(=O)c1ccccc1)C(=O)N1C[C@@H](Sc2ccccc2)C[C@H]1C(=O)O [Polymorph E, (4S)-1-[(2S)-3-(benzoylthio)-2-methylpropionyl]-4-(phenylthio)-L-proline calcium salt]	non-hygroscopic	retained its polymorphic composition	identical to that before compression	no change	
C[C@H](CSC(=O)c1ccccc1)C(=O)N1C[C@@H](Sc2ccccc2)C[C@H]1C(=O)O [form C, (4S)-1-[(2S)-3-(benzoylthio)-2-methylpropionyl]-4-(phenylthio)-L-proline calcium salt]					very slight changes in polymorphic purity
C[C@H](CSC(=O)c1ccccc1)C(=O)N1C[C@@H](Sc2ccccc2)C[C@H]1C(=O)O [form F, (4S)-1-[(2S)-3-(benzoylthio)-2-methylpropionyl]-4-(phenylthio)-L-proline calcium salt]	non-hygroscopic				
